The results in this text go back to ChEMBL document CHEMBL1201862, “PubChem BioAssay data set” (2004).

Among the test systems are SK-OV-3; SF-268; SW-620; TK-10; K562; IGROV-1; HOP-92; HCT-116; OVCAR-4; SF-539; SK-MEL-2; NCI-H226; NCI-H460; SK-MEL-5; SR; SK-MEL-28; LOX IMVI; Malme-3M; HOP-62; RXF 393.
Experiment in all cases: NCI-60 cell line screen, 48 h

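All cell lines were grown in 96-well plates and treated with compound for 48 hours. GI50 = concentration required for 50% inhibition of growth.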 Activity calls are given as the source filed them. Rule as the data show it: active = GI50 up to about 1.1 µM and inactive = higher.

In the case of `COc1cc(C2SCC(=O)N2Cc2ccccc2)cc(OC)c1OC` (configuration not stated), the GI50 in the assay on SK-OV-3 was > 100 µM (inactive); in the assay with SF-268 it was > 100 µM (inactive); with SW-620, > 100 µM (inactive); in the assay with TK-10, > 100 µM (inactive); in the assay with K562, > 100 µM (inactive); in the assay with IGROV-1, 84.3 µM (inactive). In addition, the GI50 with HOP-92 was 13.2 µM (inactive); in the assay on HCT-116, > 100 µM (inactive); with OVCAR-4, > 100 µM (inactive); in the assay on SF-539, > 100 µM (inactive); in the assay on SK-MEL-2 it was > 100 µM (inactive); in the assay with NCI-H226, > 100 µM (inactive). Besides, the GI50 in the assay with NCI-H460, in the assay with SK-MEL-5, in the assay with SR, with SK-MEL-28 and in the assay with LOX IMVI was > 100 µM (inactive) each time.

`Cc1cc2c3ccccc3n3c2c2c1OC1(C)CCC(C2C1)C3(C)C` (configuration not stated): the GI50 in the assay with SK-OV-3, in the assay on SF-268, in the assay on SW-620, in the assay with Malme-3M, in the assay with TK-10 and in the assay with K562 was > 25 µM (inactive) in each case. Moreover, the GI50 in the assay with IGROV-1, with HOP-92, in the assay on HCT-116, in the assay with OVCAR-4, in the assay with SF-539 and with SK-MEL-2 was > 25 µM (inactive) in each case. For the same compound, the GI50 in the assay with NCI-H226, with NCI-H460, in the assay with HOP-62, in the assay with SK-MEL-5, in the assay on SR and with SK-MEL-28 was > 25 µM (inactive) in each case. In addition, the GI50 in the assay with LOX IMVI was > 25 µM (inactive).

For the compound `Nn1c(-c2ccccc2)n[nH]c1=O`, the GI50 in the assay on SK-OV-3 was > 100 µM (inactive); with SF-268, > 100 µM (inactive); in the assay on SW-620 it was > 100 µM (inactive); in the assay with Malme-3M it was 80.2 µM (inactive); with TK-10, > 100 µM (inactive); with K562, > 10 µM (inactive). The GI50 in the assay with IGROV-1, in the assay on HOP-92, in the assay on HCT-116, with OVCAR-4, in the assay with SF-539 and in the assay with SK-MEL-2 was > 100 µM (inactive) in each case. The GI50 in the assay on NCI-H226, with NCI-H460, in the assay with HOP-62, in the assay with SK-MEL-5, in the assay with SR and with SK-MEL-28 was > 100 µM (inactive) each time. Moreover, in the assay on LOX IMVI, the GI50 was > 100 µM (inactive).

For the compound `CCCSc1ccc2[nH]c(N3C(=O)/C(=C/c4ccc(O)c(OC)c4)N=C3c3ccccc3)cc2c1`, the GI50 in the assay with SK-OV-3 is 0.1 µM (active); in the assay with SF-268, 9.16 µM (inactive); in the assay on SW-620 it was 5.61 µM (inactive); in the assay on Malme-3M, 2.98 µM (inactive); with K562 it was 3.68 µM (inactive); in the assay with IGROV-1 it was 4.2 µM (inactive). Moreover, the GI50 with HOP-92 is 22 µM (inactive); in the assay on HCT-116, 7.59 µM (inactive); with SF-539, 4.88 µM (inactive); with SK-MEL-2, 0.0775 µM (active); in the assay on NCI-H460, 0.0422 µM (active); in the assay on HOP-62 it was 0.0424 µM (active). For the same compound, the GI50 in the assay on RXF 393 is 18.8 µM (inactive); in the assay on SK-MEL-5 it was 4.51 µM (inactive); with SR, 1.34 µM (inactive); in the assay with SK-MEL-28, 17.2 µM (inactive); with LOX IMVI it was 7.14 µM (inactive).

With `Clc1ccc2c(Cl)ncnc2c1`, the GI50 with SK-OV-3, in the assay with SF-268, with SW-620, with Malme-3M, with TK-10 and in the assay on K562 was > 100 µM (inactive) each time. In addition, the GI50 in the assay with IGROV-1 was > 100 µM (inactive); in the assay with HOP-92 it was 85.7 µM (inactive); with HCT-116, > 100 µM (inactive); in the assay with OVCAR-4, > 100 µM (inactive); in the assay with SF-539, > 100 µM (inactive); in the assay on SK-MEL-2 it was > 100 µM (inactive). Also, the GI50 in the assay on NCI-H226 was 32.7 µM (inactive); with NCI-H460, > 100 µM (inactive); in the assay on HOP-62, > 100 µM (inactive); in the assay with SK-MEL-5, > 100 µM (inactive); in the assay on SR, > 100 µM (inactive); in the assay on SK-MEL-28, > 100 µM (inactive). Further, in the assay with LOX IMVI, the GI50 is > 100 µM (inactive).

`CC(C)(C=O)CC(C#N)/C(=N\NC(N)=O)C(=O)Nc1ccccc1C(N)=O` (configuration not stated): the GI50 in the assay with SK-OV-3, with SF-268, in the assay with SW-620, in the assay on Malme-3M, in the assay on TK-10 and in the assay with K562 was > 100 µM (inactive) in each case. The GI50 in the assay with IGROV-1 is > 100 µM (inactive); with HOP-92, 38.6 µM (inactive); with HCT-116, > 100 µM (inactive); in the assay with OVCAR-4, > 100 µM (inactive); in the assay with SF-539, > 100 µM (inactive); in the assay on SK-MEL-2 it was > 100 µM (inactive). The GI50 in the assay with NCI-H226, with NCI-H460, in the assay with HOP-62, in the assay with SK-MEL-5, in the assay with SR and with SK-MEL-28 was > 100 µM (inactive) in each case. Moreover, in the assay on LOX IMVI, the GI50 is > 100 µM (inactive).

As to `CCCCCc1c2nc(c(CCCCC)c3ccc([nH]3)c(CCCCC)c3nc(c(CCCCC)c4ccc1[nH]4)C=C3)C=C2`, the GI50 with SK-OV-3, in the assay on SF-268, in the assay with SW-620, with Malme-3M, in the assay with TK-10 and in the assay on K562 was > 100 µM (inactive) in each case. Moreover, the GI50 in the assay on IGROV-1, with HOP-92, in the assay on HCT-116, in the assay with OVCAR-4, in the assay on SF-539 and in the assay with SK-MEL-2 was > 100 µM (inactive) in each case. For the same compound, the GI50 in the assay with NCI-H460, in the assay with HOP-62, in the assay on SK-MEL-5, with SR, with SK-MEL-28 and in the assay on LOX IMVI was > 100 µM (inactive) each time.

Take `[N-]=[N+]=Nc1c([N+](=O)[O-])c(=O)n2c3c(cccc13)CCC2`: the GI50 was > 100 µM (inactive) in the assay with SK-OV-3; 13.6 µM (inactive) in the assay with SF-268; 3.9 µM (inactive) in the assay with SW-620; 1.62 µM (inactive) in the assay with Malme-3M; 20 µM (inactive) in the assay with TK-10; 1.75 µM (inactive) in the assay with K562. The GI50 in the assay with IGROV-1 was 20.8 µM (inactive); in the assay on HOP-92, 14 µM (inactive); with HCT-116 it was 15.6 µM (inactive); in the assay on OVCAR-4 it was 13.7 µM (inactive); with SF-539, 23.2 µM (inactive); with SK-MEL-2 it was 16.6 µM (inactive). Also, the GI50 was 24.2 µM (inactive) in the assay with NCI-H226; 17.8 µM (inactive) in the assay on NCI-H460; > 100 µM (inactive) in the assay with HOP-62; 16.7 µM (inactive) with SK-MEL-5; 2.27 µM (inactive) in the assay on SR; 5.62 µM (inactive) in the assay on SK-MEL-28. Further, in the assay on LOX IMVI, the GI50 is 14.4 µM (inactive).

Consider `CCOC(=O)C1CC/C(=C(/C#N)C(=O)OC)N1` (configuration not stated), for which the GI50 in the assay with SK-OV-3 was 57.7 µM (inactive); in the assay with SF-268, > 100 µM (inactive); with SW-620 it was > 100 µM (inactive); in the assay with TK-10, > 100 µM (inactive); in the assay with K562, > 100 µM (inactive); in the assay with IGROV-1, > 100 µM (inactive). For the same compound, the GI50 in the assay on HOP-92, in the assay with HCT-116, with OVCAR-4, in the assay on SF-539, in the assay with SK-MEL-2 and in the assay with NCI-H460 was > 100 µM (inactive) each time. Moreover, the GI50 with HOP-62, in the assay with RXF 393, in the assay with SK-MEL-5, in the assay on SR, in the assay with SK-MEL-28 and in the assay with LOX IMVI was > 100 µM (inactive) throughout.

In the case of `Cc1ccc(S(=O)(=O)NC(=O)Nc2c(S(N)(=O)=O)cc(S(N)(=O)=O)c(Cl)c2Cl)cc1`, the GI50 with SK-OV-3, in the assay with SF-268, with SW-620, in the assay with Malme-3M, in the assay with TK-10 and with K562 was > 100 µM (inactive) throughout. Moreover, the GI50 in the assay with IGROV-1, in the assay on HOP-92, in the assay with HCT-116, with OVCAR-4, with SF-539 and with SK-MEL-2 was > 100 µM (inactive) each time. Besides, the GI50 in the assay on NCI-H226, with NCI-H460, with SK-MEL-5, in the assay with SR, in the assay with SK-MEL-28 and in the assay with LOX IMVI was > 100 µM (inactive) each time.

In the case of `C[N+](C)([O-])CCCNc1ccnc2cccc([N+](=O)[O-])c12`, the GI50 is 80.7 µM (inactive) with SK-OV-3; 27 µM (inactive) in the assay on SF-268; 31.1 µM (inactive) with SW-620; 28.1 µM (inactive) in the assay on Malme-3M; 24.9 µM (inactive) in the assay with TK-10; 38.5 µM (inactive) in the assay on K562. For the same compound, the GI50 with IGROV-1 is 46 µM (inactive); in the assay on HCT-116, 28.4 µM (inactive); with OVCAR-4, 20.5 µM (inactive); with SF-539 it was 22 µM (inactive); with SK-MEL-2, 19.8 µM (inactive); with NCI-H226 it was 47.1 µM (inactive). Also, the GI50 in the assay with NCI-H460 was 15.5 µM (inactive); in the assay with HOP-62, 83 µM (inactive); in the assay on RXF 393, 18.7 µM (inactive); in the assay with SK-MEL-5, 16.1 µM (inactive); with SR, 34.2 µM (inactive); in the assay with SK-MEL-28, 72.6 µM (inactive). Also, in the assay with LOX IMVI, the GI50 was 28.2 µM (inactive).
